# Values joined by “and” are separate entries in the source; they are usually repeats but may differ in a detail not shown here. Identical values can stand only once.
# Key:
# Assay type in all cases: cell-based
# [1] = system: HIV-1 92/HT/599; experiment: HIV-1 92/HT/599 replication in human PBMCs, reverse transcriptase in culture supernatants (RLU)
# Procedure: (§1) In these studies, PHA-P stimulated PBMCs from three donors were pooled together and re-suspended in fresh tissue culture medium at 1×10^6 cells/mL and plated in the interior wells of a 96 well round bottom microplate at 50µl/well. A 100µL volume of 9 concentrations of compound serially diluted were transferred to the round-bottom 96 well plate containing the cells in triplicate. Fifty microliters (µL) of HIV-1 at a pre-determined dilution was added. Each plate contained cell control wells and virus control wells in parallel with the experimental wells. After 7 days in culture, efficacy was evaluated by measuring the reverse transcriptase in the culture supernatants and the cells were stained with the tetrazolium dye XTT to evaluate cytotoxicity.
# [2] = Cytotoxicity in human PBMCs (XTT); details: PHA-P stimulated PBMCs pooled from three donors; human PBMCs, XTT
# Procedure: as §1
# [3] = system: HUMAN PBMCS; experiment: Cytotoxicity in human PBMCs (XTT); details: for TOXICITY VALUES (XTT - O.D. @ 450/650 nm), SAMPLE: individual samples
# Procedure: as §1
structure (smiles),measurement,setting,value
"Cc1cn([C@H]2C[C@H](N=[N+]=[N-])[C@@H](CO)O2)c(=O)[nH]c1=O [AZT, Zidovudine, reference compound]",% Virus Control,[1]; 0.003 μM,28.53%
same,Antiviral Test Values Mean RLU,[1]; 0.003 μM,5503.7 RLU
same,% Virus Control,[1]; 0.01 μM,10.36%
same,Antiviral Test Values Mean RLU,[1]; 0.01 μM,1999.0 RLU
same,% Virus Control,[1]; 0.032 μM,13.16%
same,Antiviral Test Values Mean RLU,[1]; 0.032 μM,2538.7 RLU
same,% Virus Control,[1]; 0.32 μM,0.99%
same,Antiviral Test Values Mean RLU,[1]; 0.32 μM,190.7 RLU
same,% Virus Control,[1]; 1 μM,0.56%
same,Antiviral Test Values Mean RLU,[1]; 1 μM,112.7 RLU
same,EC 25%,"[1]; HIV-1 92/HT/599, human PBMCs",<3 nM
same,EC 95%,"[1]; HIV-1 92/HT/599, human PBMCs",99 nM
same,EC50,"[1]; Human immunodeficiency virus 1, PBMC, read-out: EC50 (EC 50%), HIV-1 92/HT/599, human PBMCs",< 3 nM
same,CC50 at 7 days,[2],> 1000 nM
same,% Cell Viability,[3]; 0.003 μM,114.74%
same,"TOXICITY VALUES (XTT - O.D. @ 450/650 nm), SAMPLE",[3]; 0.003 μg/ml (so in the source),1.2555 O.D. and 1.2949 O.D. and 1.3058 O.D.
same,% Cell Viability,[3]; 0.01 μM,123.74%
same,"TOXICITY VALUES (XTT - O.D. @ 450/650 nm), SAMPLE",[3]; 0.01 μg/ml (so in the source),1.2369 O.D. and 1.6369 O.D.
same,% Cell Viability,[3]; 0.032 μM,111.47%
same,"TOXICITY VALUES (XTT - O.D. @ 450/650 nm), SAMPLE",[3]; 0.032 μg/ml (so in the source),1.2990 O.D. and 1.2908 O.D. and 1.1569 O.D.
same,% Cell Viability,[3]; 0.32 μM,92.20%
same,"TOXICITY VALUES (XTT - O.D. @ 450/650 nm), SAMPLE",[3]; 0.32 μg/ml (AZT table),0.9607 O.D. and 0.9984 O.D. and 1.1398 O.D.
same,% Cell Viability,[3]; 1 μM,81.66%
same,"TOXICITY VALUES (XTT - O.D. @ 450/650 nm), SAMPLE",[3]; 1 μg/ml (AZT table),1.1224 O.D. and 0.5742 O.D. and 1.0479 O.D.
same,TC 25%,"[3]; human PBMCs, XTT",>1000 nM
same,TC 95%,"[3]; human PBMCs, XTT",>1000 nM

# Reference: US9877956B2, “Antiviral compounds and methods of use thereof” (Trana Discovery, Inc., priority 2014, dated 2018)
